From article PMC5717164 (Nature Communications, 2017)

Key:
[1] = biological target: T1, D-alanine:D-alanine ligase (EcDdlB) (Escherichia coli, UniProt P07862); test: co-crystal structures at […] Å (with D-Ala-D-Ala) and […] Å (with DCSP, 4C5A); format: binding
T1 construct: gene ddlB; all 306 residues of the native protein, with amino-terminal histidine-tag

[2] = biological target: T1, D-alanine:D-alanine ligase (EcDdlB); test: co-crystal structure at […] Å (formed in situ from ATP and DCS); format: binding

Compound	co-crystal structures at 1.5 Å (with D-Ala-D-Ala) and 1.65 Å (with DCSP, 4C5A) [1]	co-crystal structure at 1.65 Å (formed in situ from ATP and DCS) [2]
Nc1ncnc2c1ncn2[C@@H]1O[C@H](COP(=O)(O)OP(=O)(O)O)[C@@H](O)[C@H]1O [ADP]	The adenine ring of the ATP or ADP ligand lies in a pocket mainly composed of hydrophobic and aromatic residues	
NC1CON=C1OP(=O)(O)O [DCSP, phosphorylated D-cycloserine]		phosphorylated DCS was bound in the high-affinity D-alanine binding site (D-Ala1)
